Test system: SH-SY5Y cells
Test: MTS assay 72 h, neurotoxic effect
Type: cell-based, human
Settings: 10 and 50 μM
Description: SHSY5Y cells were grown in DMEM supplemented by 10% FBS, L-glutamine (2 mM), and penicillin (100u/mL)/streptomycin (100 μg/mL). The cell line was tested for mycoplasma using DAPI staining and the LookOut Mycoplasma PCR Detection Kit (MP0035, Merck). The cell line was authenticated after thawing by a morphology check, cell proliferation rate evaluation, and species verification by PCR. Bacteria contamination was excluded. […] Subsequently, cells were subjected to a CellTiter 96 AQueous One Solution Cell Proliferation Assay (Promega), according to the manufacturer’s protocol. The absorbance at 490 nm was evaluated to estimate the cell number.

For `CN1CCN(c2nc(N)nc(C(C)(C)Sc3ccc4ccccc4c3)n2)CC1` [WA-22, 4-(4-methylpiperazin-1-yl)-6-(2-(naphthalen-2-ylthio)propan-2-yl)-1,3,5-triazin-2-amine], the “neurotoxic effect (MTS)” value was “no significant differences”.

From article PMC11926880, “Procognitive Potential of Neuroprotective Triazine 5-HT6 Receptor Antagonists Tested on Chronic Activity In Vivo in Rats: Computer-Aided Insight into the Role of Chalcogen-Differences on the Pharmacological Profile” (ACS Chemical Neuroscience, 2025)
